pEC50, pIC50: −log10 of the molar value.
Columns and labels:
A431NS = test: Response of tumor cell lines to erastin (dose-response); assay type: cell-based; conditions: Epidermoid carcinoma
Method: (§1) Given that oncogenic RAS activates at least four downstream pathways, analysis was performed to identify which downstream effects were necessary for erastin sensitivity. In certain embodiments, the invention provides that erastin inhibits growth and kills genuine tumor cells with RAS mutations. In other embodiments, the invention provides measures of the dose-response of 29 tumor cell lines to erastin, wherein there is at least 50% inhibition of viability in 18 of the cell lines (Table 4). Numerous sarcoma-derived tumor cell lines were sensitive to erastin, consistent with the fact that erastin was discovered in an engineered tumor cell line created from human fibroblasts.

A549 = test: as above; assay type: cell-based; conditions: A549, lung carcinoma
Method: as §1

EWS502 = test: as above; assay type: cell-based
Method: as §1

HCT 116 = test: as above; assay type: cell-based; conditions: HCT 116, colorectal carcinoma
Method: as §1

HL-60 = test: as above; assay type: cell-based
Method: as §1

HOS = test: as above; assay type: cell-based
Method: as §1

Hs 925.T = test: as above; assay type: cell-based
Method: as §1

Hs51.T = test: as above; assay type: cell-based
Method: as §1

LNCaP = test: as above; assay type: cell-based
Method: as §1

MES-SA = test: as above; assay type: cell-based
Method: as §1

SK-ES-1 = test: as above; assay type: cell-based
Method: as §1

SK-LMS-1 = test: as above; assay type: cell-based
Method: as §1

SK-N-MC = test: as above; assay type: cell-based
Method: as §1

SK-UT = test: as above; assay type: cell-based
Method: as §1

SW982 = test: as above; assay type: cell-based; conditions: SW982, synovial sarcoma
Method: as §1

TC71 = test: as above; assay type: cell-based
Method: as §1

U973 = test: as above; assay type: cell-based
Method: as §1

Calu-1 cells = test: Sensitivity of Calu-1 lung carcinoma cells to erastin; assay type: cell-based; conditions: Homo sapiens; Calu-1 lung carcinoma cells with activating KRAS mutation
Method: Erastin was discovered, e.g., in a screen for oncogenic-HRAS-selective lethal compounds. KRAS is more frequently mutated in human cancers than HRAS. Thus, whether erastin is selectively lethal to tumor cells harboring oncogenic KRAS was tested. Calu-1 is a lung carcinoma cell line (Calu-1) with an activating mutation in KRAS. In certain embodiments, Calu-1 cells were sensitive to erastin (IC50=5 μM). Two different lentiviral constructs were used to reduce expression of mutant KRAS.
(Left panel) Calu-1 cells that had been infected with lentiviruses expressing shRNAs targeting GFP (as a control) or KRAS (targeting 19 nucleotides starting at nucleotide 269 or 509) were seeded in 6-well plates, treated with erastin and viability measured using Trypan Blue exclusion on a Beckman Vi-Cell. Error bars represent one SD. (Right panel) Western blot showing KRAS knockdown in Calu-1 cells. Top band=actin, Bottom band=KRAS. Calu-1 cells were infected with nothing (left lane), or lentiviruses containing shRNA constructs targeting GFP or KRAS. For KRAS, the shRNA was designed to match 19 nucleotides starting at the indicated nt.

[1] = tested on: BJ-TERT/LT/ST/RAS^V12 cells; test: Mitochondrial membrane potential (JC-1 stain); assay type: cell-based, human; conditions: after 13 hours of treatment
Method: In certain embodiments, there is loss of mitochondrial membrane potential in >70% of BJ-TERT/LT/ST/RAS^V12 cells after 13 hours of erastin A1 treatment (JC-1 stain), and morphological changes in mitochondria examined by EM, consistent with the notion that erastin induces mitochondrial dysfunction.

cytochrome c = test: Cytochrome c release from mitochondria; assay type: cell-based, human; conditions: BJ-TERT/LT/ST/RAS^V12 cells; staurosporine 1 μM or erastin 20 μg/mL, 6 h
Method: BJ-TERT/LT/ST/RAS^V12 cells were seeded in polystyrene 100×20 mm dishes in 10 ml media. After overnight incubation at 37° C. with 5% CO2, the cells were treated with nothing (NT), staurosporine (ST, 1 μM) or erastin (20 μg/mL) for 6 h, washed with 10 mL ice-cold PBS and lysed by passage through a 25-gauge needle (five strokes). Cell lysates were centrifuged at 1850 rpm for 5 min at 4° C. to remove the nuclear fraction. Mitochondria were removed from the soluble cytosolic fraction by pelleting at 10,000 rpm. Supernatant and mitochondrial pellets were solubilized in SDS-PAGE loading buffer and analyzed by western blot using anti-cytochrome c and pan-VDAC antibodies and IR-dye-linked secondary antibodies. VDACs are mitochondrial proteins, so their absence in the cytosolic lane indicates effective separation of cytosol (C) from mitochondria (M). Fluorescence was detected on a LI-COR Odyssey infrared scanner.
For the cytochrome c release assay, cells were washed with 10 mL of ice-cold PBS, suspended in 120 μL of buffer (300 mM sucrose, 0.1% BSA, 10 mM HEPES, pH 7.5, 10 mM KCl, 1.5 mM MgCl2, 1 mM EGTA, 1 mM EDTA, 1 mM dithiothreitol, 2 mM phenylmethanesulfonyl fluoride and 1 protease inhibitor tablet (Roche)) and incubated on ice for 15 min. […] Supernatant and mitochondrial pellets were solubilized in SDS-PAGE loading buffer and analyzed by western blotting.

Question: Which Max % killing (A431NS) does the source give for `CCOc1ccccc1-n1c(C(C)N2CCN(C(=O)COc3ccc(Cl)cc3)CC2)nc2ccccc2c1=O` (centres unmarked) [erastin, 2-(1-{4-[2-(4-Chloro-phenoxy)-acetyl]-piperazin-1-yl}-ethyl)-3-(2-ethoxy-phenyl)-3H-quinazolin-4-one] here?
Answer: 0%

Question: What about the Max % killing (A549) of the same compound?
Answer: 0%

Question: What about the pEC50 (EWS502; EWS502) of the same compound?
Answer: 5.00

Question: And the “Erastin Sensitivity (maximum percent killing, as fraction)” value (EWS502; EWS502)?
Answer: 0.42

Question: What about the Max % killing (EWS502; EWS502, Ewing sarcoma) of the same compound?
Answer: 42%

Question: And the Max % killing (HCT 116)?
Answer: 0%

Question: What about the “Erastin Sensitivity (maximum percent killing, as fraction)” value (HL-60; HL 60) of the same compound?
Answer: 0.00

Question: And the Max % killing (HL-60; HL-60, acute promyelocytic leukemia)?
Answer: 0%

Question: And the pEC50 (HOS; Homo sapiens)?
Answer: 4.77

Question: And the Max % killing (HOS; Osteosarcoma)?
Answer: 100%

Question: And the pEC50 (Hs 925.T)?
Answer: 4.77

Question: And the Max % killing (Hs 925.T; Pagetoid sarcoma)?
Answer: 83%

Question: What about the pEC50 (Hs51.T) of the same compound?
Answer: 4.92

Question: What about the Max % killing (Hs51.T; Spindle cell sarcoma) of the same compound?
Answer: 88%

Question: And the pEC50 (LNCaP; Homo sapiens)?
Answer: 5.22

Question: What about the Max % killing (LNCaP; prostate carcinoma) of the same compound?
Answer: 32%

Question: And the pEC50 (MES-SA; Homo sapiens)?
Answer: 5.52

Question: And the Max % killing (MES-SA; Uterine sarcoma)?
Answer: 100%

Question: And the pEC50 (SK-ES-1; Homo sapiens, SK-ES1, SK-ES-1)?
Answer: 5.15

Question: And the Max % killing (SK-ES-1; SK-ES-1, Ewing sarcoma)?
Answer: 96%

Question: What about the “Erastin Sensitivity (maximum percent killing, as fraction)” value (SK-ES-1; SKES1) of the same compound?
Answer: 0.96

Question: What about the pEC50 (SK-LMS-1; Homo sapiens, SK-LMS-1) of the same compound?
Answer: 5.22

Question: What about the Max % killing (SK-LMS-1; SK-LMS-1, Leimyosarcoma, vulva) of the same compound?
Answer: 100%

Question: And the pEC50 (SK-N-MC; Homo sapiens, SK-N-MC)?
Answer: 5.00

Question: What about the “Erastin Sensitivity (maximum percent killing, as fraction)” value (SK-N-MC; SK N MC) of the same compound?
Answer: 0.95

Question: What about the Max % killing (SK-N-MC; SK-N-MC, Neuroepithelioma) of the same compound?
Answer: 95%

Question: What about the pEC50 (SK-UT) of the same compound?
Answer: 5.40

Question: What about the Max % killing (SK-UT; Uterine, mixed mesodermal tumor) of the same compound?
Answer: 73%

Question: And the Max % killing (SW982)?
Answer: 0%

Question: What about the “Erastin Sensitivity (maximum percent killing, as fraction)” value (TC71; TC 71) of the same compound?
Answer: 0.92

Question: And the Max % killing (TC71; TC71, Ewing sarcoma)?
Answer: 92%

Question: What about the pEC50 (TC71; TC-71, TC71) of the same compound?
Answer: 5.00

Question: And the “Erastin Sensitivity (maximum percent killing, as fraction)” value (U973; U937)?
Answer: 0.73

Question: What about the Max % killing (U973; U973, Acute myelogenous leukemia) of the same compound?
Answer: 73%

Question: What about the pEC50 (U973; U-973, U973) of the same compound?
Answer: 5.00

Question: What about the pIC50 (Calu-1 cells) of the same compound?
Answer: 5.30

Question: What about the “cells with loss of mitochondrial membrane potential” value [1] of the same compound?
Answer: > 70%

Question: And the “Cytochrome c release from mitochondria” value (cytochrome c)?
Answer: does not induce cytochrome c release
